Like-named read-outs stand apart in the source and are kept apart here.
Legend:
Assay in all cases: biochemical
Assay type in all cases: binding
468 kinases [1] = target: 468 kinases (Homo sapiens, UniProt Q07912); conditions: TNK2; read-out: % Inhibition @ 100 nM
468 kinases [2] = target: 468 kinases (Homo sapiens, UniProt Q15375); conditions: EPHA7; read-out: % Inhibition @ 100 nM
468 kinases [3] = target: 468 kinases (Homo sapiens, UniProt P00533, L858R); conditions: EGFR(L858R); read-out: % Inhibition @ 100 nM
468 kinases [4] = target: 468 kinases (Homo sapiens, UniProt Q12851); conditions: MAP4K2; read-out: % Inhibition @ 100 nM
468 kinases [5] = target: 468 kinases (Homo sapiens, UniProt P49336); conditions: CDK8; read-out: % Inhibition @ 100 nM
468 kinases [6] = target: 468 kinases (Homo sapiens, UniProt P15056); conditions: BRAF; read-out: % Inhibition @ 100 nM
468 kinases [7] = target: 468 kinases (Homo sapiens, UniProt Q9BX84); conditions: TRPM6; read-out: % Inhibition @ 100 nM
468 kinases [8] = target: 468 kinases (Homo sapiens, UniProt Q14012); conditions: CAMK1; read-out: % Inhibition @ 100 nM
468 kinases [9] = target: 468 kinases (Homo sapiens, UniProt P53355); conditions: DAPK1; read-out: % Inhibition @ 100 nM
468 kinases [10] = target: 468 kinases (Homo sapiens, UniProt Q9Y2U5); conditions: MAP3K2; read-out: % Inhibition @ 100 nM
468 kinases [11] = target: 468 kinases (Homo sapiens, UniProt P04626); conditions: ERBB2; read-out: % Inhibition @ 100 nM
468 kinases [12] = target: 468 kinases (Homo sapiens, UniProt P42338); conditions: PIK3CB; read-out: % Inhibition @ 100 nM
468 kinases [13] = target: 468 kinases (Homo sapiens, UniProt Q6DT37); conditions: DMPK2; read-out: % Inhibition @ 100 nM
468 kinases [14] = target: 468 kinases (Homo sapiens, UniProt P27037); conditions: ACVR2A; read-out: % Inhibition @ 100 nM
468 kinases [15] = target: 468 kinases (Homo sapiens, UniProt O75914); conditions: PAK3; read-out: % Inhibition @ 100 nM
468 kinases [16] = target: 468 kinases (Homo sapiens, UniProt P10721, V559D/V654A); conditions: KIT(V559D,V654A); read-out: % Inhibition @ 100 nM
468 kinases [17] = target: 468 kinases (Homo sapiens, UniProt P51451); conditions: BLK; read-out: % Inhibition @ 100 nM
468 kinases [18] = target: 468 kinases (Homo sapiens, UniProt Q96BR1); conditions: SGK3; read-out: % Inhibition @ 100 nM
468 kinases [19] = target: 468 kinases (Homo sapiens, UniProt Q96RR4); conditions: CAMKK2; read-out: % Inhibition @ 100 nM
468 kinases [20] = target: 468 kinases (Homo sapiens, UniProt P48730); conditions: CSNK1D; read-out: % Inhibition @ 100 nM
468 kinases [21] = target: 468 kinases (Homo sapiens, UniProt Q8NEB9); conditions: VPS34; read-out: % Inhibition @ 100 nM
468 kinases [22] = target: 468 kinases (Homo sapiens, UniProt O60331); conditions: PIPSK1C; read-out: % Inhibition @ 100 nM
468 kinases [23] = target: 468 kinases (Homo sapiens, UniProt Q13873); conditions: BMPR2; read-out: % Inhibition @ 100 nM
468 kinases [24] = target: 468 kinases (Homo sapiens, UniProt P22607); conditions: FGFR3; read-out: % Inhibition @ 100 nM
468 kinases [25] = target: 468 kinases (Homo sapiens, UniProt P36896); conditions: ACVR1B; read-out: % Inhibition @ 100 nM
468 kinases [26] = target: 468 kinases (Homo sapiens, UniProt P23458); conditions: JAK1(JH1domain-catalytic); read-out: % Inhibition @ 100 nM
468 kinases [27] = target: 468 kinases (Homo sapiens, UniProt P08581, Y1235D); conditions: MET(Y1235D); read-out: % Inhibition @ 100 nM
468 kinases [28] = target: 468 kinases (Homo sapiens, UniProt Q9UPZ9); conditions: ICK; read-out: % Inhibition @ 100 nM
468 kinases [29] = target: 468 kinases (Homo sapiens, UniProt O14757); conditions: CHEK1; read-out: % Inhibition @ 100 nM
468 kinases [30] = target: 468 kinases (Homo sapiens, UniProt Q9Y2K2); conditions: QSK; read-out: % Inhibition @ 100 nM
468 kinases [31] = target: 468 kinases (Homo sapiens, UniProt Q12866); conditions: MERTK; read-out: % Inhibition @ 100 nM
468 kinases [32] = target: 468 kinases (Homo sapiens, UniProt P30530); conditions: AXL; read-out: % Inhibition @ 100 nM
468 kinases [33] = target: 468 kinases (Homo sapiens, UniProt P00519, H396P); conditions: read-out: % Inhibition @ 100 nM

468 kinases (Homo sapiens, UniProt P00533, L858R), sequence (P00533 25-1210 L858R limits assumed): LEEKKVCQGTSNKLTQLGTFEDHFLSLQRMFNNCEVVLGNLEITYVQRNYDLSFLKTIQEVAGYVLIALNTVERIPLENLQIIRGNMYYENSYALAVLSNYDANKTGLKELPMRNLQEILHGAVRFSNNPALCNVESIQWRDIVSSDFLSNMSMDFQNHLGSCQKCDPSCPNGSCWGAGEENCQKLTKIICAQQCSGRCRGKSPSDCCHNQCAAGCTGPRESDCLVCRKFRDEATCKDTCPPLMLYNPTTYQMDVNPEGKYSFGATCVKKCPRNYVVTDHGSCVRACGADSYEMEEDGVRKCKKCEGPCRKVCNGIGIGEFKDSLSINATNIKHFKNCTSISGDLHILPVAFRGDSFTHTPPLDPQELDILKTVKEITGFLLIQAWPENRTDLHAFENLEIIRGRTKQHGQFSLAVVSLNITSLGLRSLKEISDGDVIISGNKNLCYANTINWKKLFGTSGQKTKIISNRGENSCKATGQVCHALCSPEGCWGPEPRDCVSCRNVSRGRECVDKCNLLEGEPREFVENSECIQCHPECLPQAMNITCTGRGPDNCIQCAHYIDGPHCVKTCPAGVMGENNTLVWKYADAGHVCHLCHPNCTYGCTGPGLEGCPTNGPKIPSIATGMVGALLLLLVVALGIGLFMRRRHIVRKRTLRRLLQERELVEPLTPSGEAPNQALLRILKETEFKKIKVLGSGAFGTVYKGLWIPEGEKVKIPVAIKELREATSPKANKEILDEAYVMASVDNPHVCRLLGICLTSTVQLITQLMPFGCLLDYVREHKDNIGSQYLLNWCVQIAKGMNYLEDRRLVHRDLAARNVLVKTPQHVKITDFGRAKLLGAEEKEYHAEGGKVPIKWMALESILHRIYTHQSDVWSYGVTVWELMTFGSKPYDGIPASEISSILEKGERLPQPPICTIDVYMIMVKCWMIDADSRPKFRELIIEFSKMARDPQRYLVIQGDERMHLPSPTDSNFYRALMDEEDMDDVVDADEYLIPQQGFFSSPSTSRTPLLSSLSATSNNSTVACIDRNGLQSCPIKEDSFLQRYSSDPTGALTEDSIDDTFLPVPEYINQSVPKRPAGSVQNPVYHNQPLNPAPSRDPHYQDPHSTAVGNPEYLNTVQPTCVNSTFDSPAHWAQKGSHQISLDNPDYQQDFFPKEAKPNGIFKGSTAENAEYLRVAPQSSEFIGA
468 kinases (Homo sapiens, UniProt P08581, Y1235D), sequence (P08581 25-1390 Y1235D limits assumed): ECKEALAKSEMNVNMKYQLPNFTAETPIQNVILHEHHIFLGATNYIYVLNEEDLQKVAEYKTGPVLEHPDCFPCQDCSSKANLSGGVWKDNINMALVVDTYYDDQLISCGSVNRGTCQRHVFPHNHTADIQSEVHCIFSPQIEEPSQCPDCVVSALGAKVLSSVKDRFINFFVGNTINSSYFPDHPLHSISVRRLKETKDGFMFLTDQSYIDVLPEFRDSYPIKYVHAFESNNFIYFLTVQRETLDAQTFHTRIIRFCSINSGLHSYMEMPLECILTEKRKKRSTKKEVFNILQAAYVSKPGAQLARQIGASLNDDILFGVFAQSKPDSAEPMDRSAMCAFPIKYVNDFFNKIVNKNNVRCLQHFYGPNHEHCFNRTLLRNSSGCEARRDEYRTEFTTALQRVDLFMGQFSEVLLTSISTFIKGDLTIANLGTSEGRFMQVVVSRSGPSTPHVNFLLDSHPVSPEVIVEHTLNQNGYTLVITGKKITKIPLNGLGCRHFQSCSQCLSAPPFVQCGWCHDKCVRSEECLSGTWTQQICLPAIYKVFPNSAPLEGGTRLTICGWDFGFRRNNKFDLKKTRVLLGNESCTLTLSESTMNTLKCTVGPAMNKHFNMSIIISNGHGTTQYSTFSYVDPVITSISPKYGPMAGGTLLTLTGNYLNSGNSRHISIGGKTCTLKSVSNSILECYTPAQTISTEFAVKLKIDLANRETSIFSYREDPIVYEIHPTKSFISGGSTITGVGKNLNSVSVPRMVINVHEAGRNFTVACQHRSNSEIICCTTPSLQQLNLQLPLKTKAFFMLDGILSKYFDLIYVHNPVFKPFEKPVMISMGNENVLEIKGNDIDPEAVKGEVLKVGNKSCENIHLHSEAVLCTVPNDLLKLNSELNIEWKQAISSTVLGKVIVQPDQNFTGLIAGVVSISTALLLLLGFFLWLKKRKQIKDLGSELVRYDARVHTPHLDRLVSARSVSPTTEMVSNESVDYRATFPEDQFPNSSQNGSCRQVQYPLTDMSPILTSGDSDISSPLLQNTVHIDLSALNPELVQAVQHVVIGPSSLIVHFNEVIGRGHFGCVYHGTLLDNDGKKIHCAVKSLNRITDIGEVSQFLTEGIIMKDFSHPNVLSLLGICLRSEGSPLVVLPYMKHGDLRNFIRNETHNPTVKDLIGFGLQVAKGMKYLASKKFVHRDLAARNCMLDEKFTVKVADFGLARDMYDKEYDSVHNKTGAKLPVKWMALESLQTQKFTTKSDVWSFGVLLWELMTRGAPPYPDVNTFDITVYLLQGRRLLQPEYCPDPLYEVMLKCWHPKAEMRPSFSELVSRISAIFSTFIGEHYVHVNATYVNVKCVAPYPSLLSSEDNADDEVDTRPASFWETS
468 kinases (Homo sapiens, UniProt P15056), sequence (P15056 2-766 limits assumed): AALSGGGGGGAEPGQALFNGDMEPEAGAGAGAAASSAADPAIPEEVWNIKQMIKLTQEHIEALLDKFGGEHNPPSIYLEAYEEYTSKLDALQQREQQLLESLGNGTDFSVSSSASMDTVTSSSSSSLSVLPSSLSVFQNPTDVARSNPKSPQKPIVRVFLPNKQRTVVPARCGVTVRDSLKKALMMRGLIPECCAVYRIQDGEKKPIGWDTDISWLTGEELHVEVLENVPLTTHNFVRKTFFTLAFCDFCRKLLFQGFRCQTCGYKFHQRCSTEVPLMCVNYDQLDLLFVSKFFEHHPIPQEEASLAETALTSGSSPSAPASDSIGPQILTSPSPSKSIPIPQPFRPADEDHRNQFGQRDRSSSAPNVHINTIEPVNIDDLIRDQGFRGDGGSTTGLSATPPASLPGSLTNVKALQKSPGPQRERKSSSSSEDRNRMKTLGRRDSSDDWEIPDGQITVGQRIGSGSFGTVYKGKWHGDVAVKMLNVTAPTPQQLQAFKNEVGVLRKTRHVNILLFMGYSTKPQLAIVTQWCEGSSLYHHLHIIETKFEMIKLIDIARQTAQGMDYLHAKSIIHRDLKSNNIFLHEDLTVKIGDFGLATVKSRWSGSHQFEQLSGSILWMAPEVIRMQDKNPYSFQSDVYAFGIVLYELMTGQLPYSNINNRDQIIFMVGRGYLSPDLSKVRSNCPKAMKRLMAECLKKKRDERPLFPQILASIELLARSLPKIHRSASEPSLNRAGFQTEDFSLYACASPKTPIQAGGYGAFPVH
468 kinases (Homo sapiens, UniProt Q12866), sequence (Q12866 21-999 limits assumed): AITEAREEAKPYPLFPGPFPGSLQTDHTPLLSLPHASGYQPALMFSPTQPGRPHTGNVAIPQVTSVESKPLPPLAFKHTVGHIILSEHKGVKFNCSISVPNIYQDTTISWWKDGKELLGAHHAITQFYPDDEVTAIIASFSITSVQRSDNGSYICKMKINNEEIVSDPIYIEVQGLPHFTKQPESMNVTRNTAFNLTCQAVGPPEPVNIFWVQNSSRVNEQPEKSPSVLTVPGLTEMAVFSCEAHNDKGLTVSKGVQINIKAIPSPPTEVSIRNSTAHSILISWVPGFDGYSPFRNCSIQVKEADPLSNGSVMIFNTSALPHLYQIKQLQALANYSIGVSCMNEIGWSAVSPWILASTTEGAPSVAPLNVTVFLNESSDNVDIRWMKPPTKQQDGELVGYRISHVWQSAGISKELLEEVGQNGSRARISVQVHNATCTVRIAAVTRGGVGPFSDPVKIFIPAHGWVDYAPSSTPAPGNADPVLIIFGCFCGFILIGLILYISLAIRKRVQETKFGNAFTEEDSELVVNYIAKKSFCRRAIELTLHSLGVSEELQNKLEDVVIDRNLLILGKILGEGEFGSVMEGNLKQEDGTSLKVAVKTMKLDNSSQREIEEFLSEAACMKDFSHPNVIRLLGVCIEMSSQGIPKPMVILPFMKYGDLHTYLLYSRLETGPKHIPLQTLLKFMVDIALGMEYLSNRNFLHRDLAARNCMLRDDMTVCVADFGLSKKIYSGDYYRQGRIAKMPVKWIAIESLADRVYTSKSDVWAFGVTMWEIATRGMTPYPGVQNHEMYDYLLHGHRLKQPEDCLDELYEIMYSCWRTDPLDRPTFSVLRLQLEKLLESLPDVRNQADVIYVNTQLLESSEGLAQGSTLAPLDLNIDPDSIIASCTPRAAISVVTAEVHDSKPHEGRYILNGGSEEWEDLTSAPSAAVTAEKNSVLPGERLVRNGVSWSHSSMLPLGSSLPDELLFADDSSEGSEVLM
468 kinases (Homo sapiens, UniProt P27037), sequence (P27037 20-513 limits assumed): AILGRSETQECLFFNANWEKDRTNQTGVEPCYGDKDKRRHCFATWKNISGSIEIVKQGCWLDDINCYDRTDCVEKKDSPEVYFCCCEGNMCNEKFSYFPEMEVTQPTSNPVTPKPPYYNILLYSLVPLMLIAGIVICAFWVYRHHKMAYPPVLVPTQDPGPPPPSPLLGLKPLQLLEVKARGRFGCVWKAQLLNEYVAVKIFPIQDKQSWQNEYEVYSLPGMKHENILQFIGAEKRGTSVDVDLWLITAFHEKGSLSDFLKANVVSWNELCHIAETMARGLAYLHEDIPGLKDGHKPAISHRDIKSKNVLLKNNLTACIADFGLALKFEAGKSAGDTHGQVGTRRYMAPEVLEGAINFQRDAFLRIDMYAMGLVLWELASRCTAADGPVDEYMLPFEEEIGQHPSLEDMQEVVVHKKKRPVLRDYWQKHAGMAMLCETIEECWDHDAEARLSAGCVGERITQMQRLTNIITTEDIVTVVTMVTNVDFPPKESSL

With `CCN(CC)CCNC(=O)c1c(C)[nH]c(/C=C2\C(=O)Nc3ccc(CCO)cc32)c1C` [Compound No. 10, (Z)—N-(2-(Diethylamino)ethyl)-5-((5-(2-hydroxyethyl)-2-oxoindolin-3-ylidene)methyl)-2,4-dimethyl-1H-pyrrole-3-carboxamide] the inhibition at 0.1 µM (468 kinases [1]) was 0%, the inhibition at 0.1 µM (468 kinases [2]) was 0% and the inhibition at 0.1 µM (468 kinases [3]) was 0%. The inhibition at 0.1 µM (468 kinases [4]) was 88%, the inhibition at 0.1 µM (468 kinases [5]) was 23% and the inhibition at 0.1 µM (468 kinases [6]) was 2%. It also gave an inhibition at 0.1 µM (468 kinases [7]) of 0%, an inhibition at 0.1 µM (468 kinases [8]) of 0% and an inhibition at 0.1 µM (468 kinases [9]) of 4%. It also gave an inhibition at 0.1 µM (468 kinases [10]) of 77%, an inhibition at 0.1 µM (468 kinases [11]) of 0% and an inhibition at 0.1 µM (468 kinases [12]) of 0%. The inhibition at 0.1 µM (468 kinases [13]) was 0%, the inhibition at 0.1 µM (468 kinases [14]) was 10% and the inhibition at 0.1 µM (468 kinases [15]) was 36%. It also gave an inhibition at 0.1 µM (468 kinases [16]) of 79%, an inhibition at 0.1 µM (468 kinases [17]) of 40% and an inhibition at 0.1 µM (468 kinases [18]) of 0%. It also gave an inhibition at 0.1 µM (468 kinases [19]) of 29%, an inhibition at 0.1 µM (468 kinases [20]) of 29% and an inhibition at 0.1 µM (468 kinases [21]) of 25%. The inhibition at 0.1 µM (468 kinases [22]) was 32%, the inhibition at 0.1 µM (468 kinases [23]) was 0% and the inhibition at 0.1 µM (468 kinases [24]) was 52%. It also gave an inhibition at 0.1 µM (468 kinases [25]) of 0%, an inhibition at 0.1 µM (468 kinases [26]) of 0% and an inhibition at 0.1 µM (468 kinases [27]) of 4%. The inhibition at 0.1 µM (468 kinases [28]) was 0%, the inhibition at 0.1 µM (468 kinases [29]) was 42% and the inhibition at 0.1 µM (468 kinases [30]) was 0%. For the same molecule, the inhibition at 0.1 µM (468 kinases [31]) was 71%, the inhibition at 0.1 µM (468 kinases [32]) was 88% and the inhibition at 0.1 µM (468 kinases [33]; ABL1 (H396P)-nonphosphorylated) was 57%. For the same molecule, the inhibition at 0.1 µM (468 kinases [33]; ABL1 (H396P)-phosphorylated) was 6%.
Work on `CCN(CC)CCNC(=O)c1c(C)[nH]c(/C=C2\C(=O)Nc3ccc(CCC(N)=O)cc32)c1C` [Compound No. 16, (Z)-5-((5-(3-Amino-3-oxopropyl)-2-oxoindolin-3-ylidene)methyl)-N-(2-(diethylamino)ethyl)-2,4-dimethyl-1H-pyrrole-3-carboxamide] yielded an inhibition at 0.1 µM (468 kinases [1]) of 20%, an inhibition at 0.1 µM (468 kinases [2]) of 1% and an inhibition at 0.1 µM (468 kinases [3]) of 32%. For the same molecule, the inhibition at 0.1 µM (468 kinases [4]) was 89%, the inhibition at 0.1 µM (468 kinases [5]) was 15% and the inhibition at 0.1 µM (468 kinases [6]) was 11%. For the same molecule, the inhibition at 0.1 µM (468 kinases [7]) was 29%, the inhibition at 0.1 µM (468 kinases [8]) was 0% and the inhibition at 0.1 µM (468 kinases [9]) was 20%. It also gave an inhibition at 0.1 µM (468 kinases [10]) of 29%, an inhibition at 0.1 µM (468 kinases [11]) of 0% and an inhibition at 0.1 µM (468 kinases [12]) of 3%. For the same molecule, the inhibition at 0.1 µM (468 kinases [13]) was 20%, the inhibition at 0.1 µM (468 kinases [14]) was 18% and the inhibition at 0.1 µM (468 kinases [15]) was 13%. The inhibition at 0.1 µM (468 kinases [16]) was 0%, the inhibition at 0.1 µM (468 kinases [17]) was 29% and the inhibition at 0.1 µM (468 kinases [18]) was 26%. It also gave an inhibition at 0.1 µM (468 kinases [19]) of 49%, an inhibition at 0.1 µM (468 kinases [20]) of 9% and an inhibition at 0.1 µM (468 kinases [21]) of 46%. It also gave an inhibition at 0.1 µM (468 kinases [22]) of 15%, an inhibition at 0.1 µM (468 kinases [23]) of 50% and an inhibition at 0.1 µM (468 kinases [24]) of 11%. For the same molecule, the inhibition at 0.1 µM (468 kinases [25]) was 0%, the inhibition at 0.1 µM (468 kinases [26]) was 10% and the inhibition at 0.1 µM (468 kinases [27]) was 0%. It also gave an inhibition at 0.1 µM (468 kinases [28]) of 88%, an inhibition at 0.1 µM (468 kinases [29]) of 66% and an inhibition at 0.1 µM (468 kinases [30]) of 0%. It also gave an inhibition at 0.1 µM (468 kinases [31]) of 68%, an inhibition at 0.1 µM (468 kinases [32]) of 92.5% and an inhibition at 0.1 µM (468 kinases [33]; ABL1 (H396P)-nonphosphorylated) of 66%.
